Test results: PubChem BioAssay (NCI)
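All cell lines were grown in 96-well plates and treated with compound for 48 hours. Here, GI50 denotes the concentration required for 50% inhibition of growth. At the TGI there is no net growth.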

Experiments:
Assay in all cases: NCI-60 cell line screen, 48 h
786-0 renal = test system: 786-0 renal
HCC-2998 colon = test system: HCC-2998 colon
HOP-92 NSCLC = test system: HOP-92 NSCLC
HT29 colon = test system: HT29 colon
NCI-H226 lung = test system: NCI-H226 lung
PC-3 prostate = test system: PC-3 prostate
SK-MEL-5 melanoma = test system: SK-MEL-5 melanoma
TK-10 renal = test system: TK-10 renal
UACC-257 melanoma = test system: UACC-257 melanoma

Row | Compound | GI50 (786-0 renal) [µM] | TGI (786-0 renal) [µM] | GI50 (HCC-2998 colon) [µM] | TGI (HCC-2998 colon) [µM] | GI50 (HOP-92 NSCLC) [µM] | GI50 (HT29 colon) [µM] | TGI (HT29 colon) [µM] | GI50 (NCI-H226 lung) [µM] | TGI (NCI-H226 lung) [µM] | GI50 (PC-3 prostate) [µM] | TGI (PC-3 prostate) [µM] | GI50 (SK-MEL-5 melanoma) [µM] | TGI (SK-MEL-5 melanoma) [µM] | GI50 (TK-10 renal) [µM] | TGI (TK-10 renal) [µM] | GI50 (UACC-257 melanoma) [µM] | TGI (UACC-257 melanoma) [µM] | TGI (HOP-92 NSCLC) [µM]
1 | O=C1c2[nH]cc(CNC3CN4CCC3CC4)c2C(=O)c2c1c(O)c1ccccc1c2O (centres undefined) | 2.53 | 8.65 | 0.187 | 0.721 | 1.1 | 12.5 | 38.3 | 16.3 | 41.4 | 1.21 | 3.41 | 11.9 | 31.5 | 0.266 | 1.19 | 31.7 | > 76.3 | 
2 | C=C=C(C(=O)OC)S(=O)c1ccccc1[N+](=O)[O-] (centres undefined) |  | > 100 |  | > 100 |  |  | > 100 |  | > 100 |  |  |  | > 100 |  | > 100 |  | > 100 | 
3 | C#CCNC(=O)N(CC#C)N=O |  | > 100 |  | > 100 |  |  | > 100 |  | > 100 |  |  |  | > 100 |  | > 100 |  | > 100 | > 100
4 | Nc1c(-c2cn(Cc3ccccc3)c3ccccc23)[n+]([O-])c2ccccc2[n+]1[O-] |  | > 100 |  | > 100 |  |  | > 100 |  | 36.5 |  |  |  | 51.3 |  | > 100 |  | 35.5 | 43.1
5 | COC(=O)C1=Cc2cc(OC)c(OC)c(OC)c2[C@H](c2cc(OC)c(OC)c(OC)c2)C1C(=O)OC (some centres undefined) |  | > 100 |  | > 100 |  |  | > 100 |  | > 100 |  |  |  | > 100 |  | > 100 |  | > 100 | 74.5
6 | COc1ccccc1NC(=O)C1=C(C)NC(C)=C(C(=O)Nc2ccccc2OC)C1C1=CC=COC1 |  | > 100 |  | 50.2 |  |  | 62.7 |  | > 100 |  |  |  | 41.9 |  | 61.6 |  | 68.3 | 83.8
7 | c1ccc([CH2][Sn]([CH2]c2ccccc2)([O]c2cccc3cccnc23)[O]c2cccc3cccnc23)cc1 | 0.155 | 0.385 | 0.201 | 0.418 | 1.19 | 0.139 | 0.361 | 1.38 | 2.85 |  |  | 0.213 | 0.415 | 1.67 | 3.1 | 0.302 | 0.836 | 2.46
8 | CN(C)c1ccc(/C=C/C(=O)[O-])cc1.CN(C)c1ccc(/C=C/C(=O)[O-])cc1.[Cu+2] | 59.5 | > 100 |  | > 100 |  |  | > 100 |  | > 100 |  |  |  | 93.5 | > 100 | > 100 |  | > 100 | 
9 | COC1OC(CO)C(O)C(OC(C)=O)C1NC(=O)N(CCCl)N=O (centres undefined) |  | > 100 |  | > 100 |  |  | > 100 |  | > 100 |  |  |  | > 100 |  | > 100 |  | > 100 | 
10 | O=C1CC(c2c(-c3ccccc3)[nH]c3ccccc23)C(=O)N1 (centres undefined) |  | > 100 |  | > 100 |  |  | > 100 |  | > 100 |  |  |  | > 100 |  | > 100 |  | > 100 | 
11 | O=S(=O)([O-])c1ccc(N=Cc2ccccc2[O-])cc1.O=S(=O)([O-])c1ccc(N=Cc2ccccc2[O-])cc1.[O]=[U+2]=[O] | 42.7 | > 100 |  |  | > 100 | > 100 | > 100 | > 100 | > 100 |  |  |  |  | 30.7 | 71.7 | > 100 | > 100 | > 100
12 | COc1c(C)cc(O)cc1C=O |  | > 100 |  | > 100 |  |  | > 100 |  | > 100 |  |  |  | > 100 |  | > 100 |  | > 100 | > 100
13 | CC[C@@H]1[C@@H](C)O[C@@](O)([C@@H](C)[C@H](O)[C@H](C)[C@H]2OC(=O)/C=C/C=C/[C@H](C)[C@@H]([C@@H](C)[C@@H](O)[C@H](C)[C@@]3(O)C[C@@H](O[C@H]4C[C@@H](O)[C@H](O)C(C)O4)[C@H](CC)[C@@H](C)O3)OC(=O)/C=C/C=C/[C@@H]2C)C[C@H]1O[C@@H]1C[C@@H](O)[C@H](O)C(C)O1 (some centres undefined) | 0.125 | 0.464 | 0.097 | 0.262 | 0.0381 | 0.109 | 0.389 | 0.0655 | 0.139 | 0.0568 | 0.147 | 0.0531 | 0.0992 | 0.0746 | 0.212 |  |  | 0.125
14 | NCCCNc1nc2ccccc2c2c(=O)c3cc(F)cc(F)c3sc12 | 1.49 | 3.12 | 1.69 | 3.36 | 1.65 |  |  | 10.9 | 29.1 | 1.67 | 3.24 | 1.68 | 3.09 | 1.69 | 3.18 | 1.88 | 4.18 | 12.6
15 | CN1C(=O)CCC2[C@@H]3CC=C4C[C@@H](O)CC[C@]4(C)C3CC[C@@]21C (some centres undefined) |  | > 100 |  | > 100 |  |  | > 100 |  | > 100 |  |  |  | 50.3 |  | > 100 |  | > 100 | 
